Values joined by “and” are separate entries in the source; they are usually repeats but may differ in a detail not shown here. Equal values may be shown once. Read-outs that look alike come from different tables or passages of the source.
Assays:
[1] = Stability in plasma, monkey; type: in vitro ADME; conditions: incubation of BXM; for % Residual in plasma (BXA, calculated from BXM concentration at 0 min as molar concentration): mean of duplicate; for % Residual in plasma Individual value (BXA, from BXM concentration at 0 minutes as molar concentration): duplicates
Procedure: (§1) Approximately 30 mL of blood from Japanese male healthy volunteers was collected and centrifuged to obtain plasma. Blood samples from ferrets, rats, dogs, and monkeys were collected under anesthesia and centrifuged to obtain plasma. BXM was added to reach a final concentration of 200 ng/mL to all pooled plasma samples per species. After incubation for 5, 15, and 30 minutes at 37°C, twofold volume of ice‐cold acetonitrile/methanol (1:1, v/v) was added to the plasma samples to stop further reactions, which were then centrifuged at 1800 g for 10 minutes prior to LC‐MS/MS analysis of BXM in the supernatants.

Stability in plasma, dog = type: in vitro ADME; conditions: incubation of BXM; for % Residual in plasma (BXA, calculated from BXM concentration at 0 min as molar concentration): mean of duplicate; for % Residual in plasma Individual value (BXA, from BXM concentration at 0 minutes as molar concentration): duplicates
Procedure: as §1

[2] = Stability in plasma, human; type: in vitro ADME; conditions: incubation of BXM; for % Residual in plasma (BXA, calculated from BXM concentration at 0 min as molar concentration): mean of duplicate; for % Residual in plasma Individual value (BXA, from BXM concentration at 0 minutes as molar concentration): duplicates
Procedure: as §1

[3] = Stability in plasma, ferret; type: in vitro ADME; conditions: incubation of BXM; for % Residual in plasma (BXA, calculated from BXM concentration at 0 min as molar concentration): mean of duplicate; for % Residual in plasma Individual value (BXA, from BXM concentration at 0 minutes as molar concentration): duplicates
Procedure: as §1

Stability in plasma, rat = type: in vitro ADME; conditions: incubation of BXM; for % Residual in plasma (BXA, calculated from BXM concentration at 0 min as molar concentration): mean of duplicate; for % Residual in plasma Individual value (BXA, from BXM concentration at 0 minutes as molar concentration): duplicates
Procedure: as §1

[4] = Pharmacokinetic analysis in ferrets after a single oral administration of BXM; type: in vivo, ferret
Procedure: One day prior to administration, group assignment was carried out taking body weight into account. Under isoflurane anesthesia, fasted ferrets (four per group) received BXM (10 or 30 mg/5 mL/kg) suspension orally using an intragastric tube. Blood samples were collected at 0.5, 1, 2, 4, 6, 8, and 24 hours after single oral administration of BXM and centrifuged to obtain plasma. The concentrations of BXA and BXM in plasma were determined by liquid chromatography‐tandem mass spectrometry (LC‐MS/MS). The lower limit of quantification of BXA and BXM in ferret plasma was 0.5 ng/mL. The pharmacokinetic parameters of BXA and BXM were calculated using non‐compartmental analysis module in Phoenix WinNonlin software (version 8.0; Certara LP) (https://onlinehelp.certara.com/phoenix/8.2/topics/nca.htm) based on a non‐compartment model analysis with uniform weighting.

[5] = 5% SDS water vs 0.5% MC, BXM 10 mg/kg
[6] = single oral BXM 10 mg/kg, 0.5% MC vehicle, mean of three ferrets
[7] = single oral BXM 10 mg/kg, 5% SDS water vehicle, mean of four ferrets
[8] = single oral BXM 10 mg/kg, individual ferrets (Ferret-01 to Ferret-04)
[9] = single oral BXM 10 mg/kg, mean of four ferrets
[10] = single oral BXM 30 mg/kg, 5% SDS water vehicle, mean of four ferrets
[11] = single oral BXM 30 mg/kg, individual ferrets (Ferret-05 to Ferret-08)
[12] = single oral BXM 30 mg/kg, mean of four ferrets

Structure (SMILES): O=C1c2c(O)c(=O)ccn2N([C@@H]2c3ccccc3SCc3c2ccc(F)c3F)[C@@H]2COCCN12 [BXA, baloxavir acid]
- % Residual in plasma (BXA, calculated from BXM concentration at 0 min as molar concentration) ([1]; 10 min): 9.0%
- % Residual in plasma Individual value (BXA, from BXM concentration at 0 minutes as molar concentration) ([1]; 10 minutes): 8.9% and 9.1%
- % Residual in plasma (BXA, calculated from BXM concentration at 0 min as molar concentration) ([1]; 20 min): 24.0%
- % Residual in plasma Individual value (BXA, from BXM concentration at 0 minutes as molar concentration) ([1]; 20 minutes): 23.5% and 24.6%
- % Residual in plasma (BXA, calculated from BXM concentration at 0 min as molar concentration) ([1]; 30 min): 43.0%
- % Residual in plasma Individual value (BXA, from BXM concentration at 0 minutes as molar concentration) ([1]; 30 minutes): 44.0% and 42.1%
- % Residual in plasma (BXA, calculated from BXM concentration at 0 min as molar concentration) (Stability in plasma, dog; 10 min): 2.8%
- % Residual in plasma Individual value (BXA, from BXM concentration at 0 minutes as molar concentration) (Stability in plasma, dog; 10 minutes): 2.8%
- % Residual in plasma (BXA, calculated from BXM concentration at 0 min as molar concentration) (Stability in plasma, dog; 20 min): 8.2%
- % Residual in plasma Individual value (BXA, from BXM concentration at 0 minutes as molar concentration) (Stability in plasma, dog; 20 minutes): 8.1% and 8.2%
- % Residual in plasma (BXA, calculated from BXM concentration at 0 min as molar concentration) (Stability in plasma, dog; 30 min): 15.6%
- % Residual in plasma Individual value (BXA, from BXM concentration at 0 minutes as molar concentration) (Stability in plasma, dog; 30 minutes): 15.6%
- % Residual in plasma (BXA, calculated from BXM concentration at 0 min as molar concentration) ([2]; 10 min): 8.3%
- % Residual in plasma Individual value (BXA, from BXM concentration at 0 minutes as molar concentration) ([2]; 10 minutes): 8.4% and 8.3%
- % Residual in plasma (BXA, calculated from BXM concentration at 0 min as molar concentration) ([2]; 20 min): 22.4%
- % Residual in plasma Individual value (BXA, from BXM concentration at 0 minutes as molar concentration) ([2]; 20 minutes): 22.4%
- % Residual in plasma (BXA, calculated from BXM concentration at 0 min as molar concentration) ([2]; 30 min): 38.1%
- % Residual in plasma Individual value (BXA, from BXM concentration at 0 minutes as molar concentration) ([2]; 30 minutes): 38.4% and 37.8%
- % Residual in plasma (BXA, calculated from BXM concentration at 0 min as molar concentration) ([3]; 10 min): 4.6%
- % Residual in plasma Individual value (BXA, from BXM concentration at 0 minutes as molar concentration) ([3]; 10 minutes): 4.6% and 4.7%
- % Residual in plasma (BXA, calculated from BXM concentration at 0 min as molar concentration) ([3]; 20 min): 13.9%
- % Residual in plasma Individual value (BXA, from BXM concentration at 0 minutes as molar concentration) ([3]; 20 minutes): 13.8% and 14.1%
- % Residual in plasma (BXA, calculated from BXM concentration at 0 min as molar concentration) ([3]; 30 min): 24.9%
- % Residual in plasma Individual value (BXA, from BXM concentration at 0 minutes as molar concentration) ([3]; 30 minutes): 24.9% and 25.0%
- % Residual in plasma (BXA, calculated from BXM concentration at 0 min as molar concentration) (Stability in plasma, rat; 10 min): 104.6%
- % Residual in plasma Individual value (BXA, from BXM concentration at 0 minutes as molar concentration) (Stability in plasma, rat; 10 minutes): 102.8% and 106.3%
- % Residual in plasma (BXA, calculated from BXM concentration at 0 min as molar concentration) (Stability in plasma, rat; 20 min): 104.0%
- % Residual in plasma Individual value (BXA, from BXM concentration at 0 minutes as molar concentration) (Stability in plasma, rat; 20 minutes): 102.2% and 105.9%
- % Residual in plasma (BXA, calculated from BXM concentration at 0 min as molar concentration) (Stability in plasma, rat; 30 min): 103.2%
- % Residual in plasma Individual value (BXA, from BXM concentration at 0 minutes as molar concentration) (Stability in plasma, rat; 30 minutes): 103.0% and 103.4%
- AUC0-24hr, Ratio to 0.5% MC [4, 5]: 7.0
- C24hr, Ratio to 0.5% MC [4, 5]: 13.6
- Cmax, Ratio to 0.5% MC [4, 5]: 4.2
- T1/2, Ratio to 0.5% MC [4, 5]: 1.5
- Tmax, Ratio to 0.5% MC [4, 5]: 3.0
- AUC0-24hr [4, 6]: 60.2 ng·h/mL
- C24hr [4, 6]: 0.223 ng/mL
- Cmax [4, 6]: 15.8 ng/mL
- T1/2 [4, 6]: 4.60 h
- Tmax [4, 6]: 0.50 h
- AUC0-24 h [4, 7]: 421 ± 119 ng·h/mL
- C 24 h [4, 7]: 3.03 ± 2.33 ng/mL and 3.03 ng/mL
- C max [4, 7]: 66.6 ± 14.6 ng/mL
- T 1/2 (terminal elimination half-life) [4, 7]: 6.91 ± 3.79 h
- T max [4, 7]: 1.50 ± 0.58 h
- AUC0-24hr, individual data [4, 8]: 292 ng·h/mL and 576 ng·h/mL and 439 ng·h/mL and 378 ng·h/mL
- C24hr, individual data [4, 8]: 0.792 ng/mL and 3.90 ng/mL and 1.52 ng/mL and 5.90 ng/mL
- Cmax, individual data [4, 8]: 59.4 ng/mL and 80.1 ng/mL and 77.3 ng/mL and 49.5 ng/mL
- T1/2, individual data [4, 8]: 4.21 h and 6.47 h and 4.57 h and 12.4 h
- Tmax, individual data [4, 8]: 1.00 hr (2×) and 2.00 hr (2×)
- AUC0-24 h [4, 9]: 0.871 ± 0.246 µM·h
- C 24 h [4, 9]: 6.26 ± 4.82 nM
- Cmax ([4]; single oral BXM 10 mg/kg, mean of four ferrets, read-out: C max): 138 ± 30 nM
- AUC0-24 h [4, 10]: 3240 ± 3240 ng·h/mL
- C 24 h [4, 10]: 9.91 ± 8.77 ng/mL and 9.91 ng/mL
- C max [4, 10]: 365 ± 316 ng/mL
- T 1/2 (terminal elimination half-life) [4, 10]: 4.44 ± 0.67 h
- T max [4, 10]: 2.00 ± 1.41 h
- AUC0-24hr, individual data [4, 11]: 7580 ng·h/mL and 3840 ng·h/mL and 1040 ng·h/mL and 508 ng·h/mL
- C24hr, individual data [4, 11]: 21.3 ng/mL and 12.3 ng/mL and 3.38 ng/mL and 2.64 ng/mL
- Cmax, individual data [4, 11]: 754 ng/mL and 489 ng/mL and 128 ng/mL and 89.6 ng/mL
- T1/2, individual data [4, 11]: 3.90 h and 4.32 h and 4.12 h and 5.41 h
- Tmax, individual data [4, 11]: 1.00 hr (2×) and 4.00 hr and 2.00 hr
- AUC0-24 h [4, 12]: 6.71 ± 6.71 µM·h
- C 24 h [4, 12]: 20.5 ± 18.2 nM
- Cmax ([4]; single oral BXM 30 mg/kg, mean of four ferrets, read-out: C max): 755 ± 653 nM
